Experimental data as given in patent US8329919B2, “Salt hydrates” (Novartis AG, priority 2002, dated 2012).
Several values for one entry are separate records, joined by “and”; a condition that tells them apart may be missing. Identical values can stand only once.

Assay: Thermogravimetry: weight loss, i.e. water loss, as a function of temperature (thermobalance TGS-2)
Format: physicochemical
Conditions: heating rate 10 K·min^−1, water-free N2 atmosphere
Experimental: Using thermogravimetry, in a water-free N2 atmosphere, the weight loss, i.e. the water loss for the tetrahydrate of the calcium salt of valsartan A1,Ca as a function of temperature, was measured at a heating rate of 10 K·min^−1. […]
Using thermogravimetry, in a water-free N2 atmosphere, the weight loss, i.e. the water loss for the trihydrate of the calcium salt of valsartan in the polymorphic form B1,Ca as a function of temperature, was measured at a heating rate of 10 K·min^−1.
(§1) Using thermogravimetry, in a water-free N2 atmosphere, the weight loss, i.e. the water loss for the trihydrate B2,Ca as a function of temperature, was measured at a heating rate of 10 K·min^−1. The results for the polymorph B2,Ca of the trihydrate of the calcium salt of valsartan are illustrated in table 4.
as §1, with “B3,Ca” for “B2,Ca”, “polymorphic form B3,Ca” for “polymorph B2,Ca”, “5.” for “4.”
Using thermogravimetry, in a water-free N2 atmosphere, the weight loss, i.e. the water loss for the di-(calcium salt of valsartan) pentahydrate D1,Ca as a function of temperature, was measured at a heating rate of 10 K·min^−1.
The instrument used for the calorimetric data is throughout a DSC Pyris 1 (Differential Scanning calorimeter) obtained from Perkin-Elmer Corp., Norwalk, Conn. USA. The measurements are performed with samples enclosed in a sealed gold specimen container with an internal free volume of ca. 22 microliters, with a sample weight of 2 to 4 mg and with a heating rate of Tr=10K·min^−1. […] The instrument used was a TGS-2 (Perkin-Elmer Corp., Norwalk, Conn. USA) and the measurement was performed in a water free atmosphere. The heating rate selected was 10 K·min^−1. The weight loss is illustrated in table 7.
The heating rate selected was 10K·min^−1.
Using thermogravimetry, in a water-free N2 atmosphere, the weight loss, i.e. the water loss for the tetrahydrate as a function of temperature, was measured at a heating rate of 10 K·min^−1. The results for the calcium salt of valsartan tetrahydrate A0,Ca are listed in the following: […]
Using thermogravimetry, in a water-free N2 atmosphere, the weight loss, i.e. the water loss for the tetrahydrate of the calcium salt of valsartan as a function of temperature, was measured at a heating rate of 10 K·min^−1.

weight loss or water loss in % (temperature 25 °C)	weight loss or water loss in % (temperature 50 °C)	weight loss or water loss in % (temperature 75 °C)	weight loss or water loss in % (temperature 100 °C)	weight loss or water loss in % (temperature 125 °C)	weight loss or water loss in % (temperature 150 °C)	weight loss or water loss in % (temperature 175 °C)	weight loss or water loss in % (temperature 200 °C)	weight loss or water loss in % (temperature 225 °C)	weight loss or water loss in % (temperature 250 °C)	weight loss or water loss in % (temperature 275 °C)	Compound	further results
0.0%	1.2%	4.2%	11.0%	16.7%	17.7%	18.3%	18.5%	18.7%	18.9%	19.3%	CCCCC(=O)N(Cc1ccc(-c2ccccc2-c2nnn[nH]2)cc1)[C@H](C(=O)O)C(C)C [A0,Mg, (S)—N-(1-carboxy-2-methyl-prop-1-yl)-N-pentanoyl-N-[2′-(1H-tetrazol-5-yl)-biphenyl-4-ylmethyl]-amine]	–
0.1 ± 0.1% and 0%	1.0 ± 0.3% and 0.9%	6.8 ± 0.5% and 6.8%	14.1 ± 0.5% and 14.3%	15.6 ± 0.5% and 15.7%	16.4 ± 0.5% and 16.5%	16.9 ± 0.5% and 17.0%	17.1 ± 0.5% and 17.2%	17.3 ± 0.5% and 17.4%	17.6 ± 0.5% and 17.8%	18.3 ± 0.5% and 18.3%	CCCCC(=O)N(Cc1ccc(-c2ccccc2-c2nnn[nH]2)cc1)[C@H](C(=O)O)C(C)C [A1,Mg, (S)—N-(1-carboxy-2-methyl-prop-1-yl)-N-pentanoyl-N-[2′-(1H-tetrazol-5-yl)-biphenyl-4-ylmethyl]-amine]	–
0 ± 0.3% and 0%	0.1 ± 0.3% and 0%	0.5 ± 0.5% and 0%	4.9 ± 0.5% and 4.7%	11.2 ± 0.5% and 11.1%	12.2 ± 0.5% and 11.9%	12.6 ± 0.5% and 12.3%	12.7 ± 0.5% and 12.5%	12.8 ± 0.5% and 12.6%	12.8 ± 0.5% and 12.7%	13.0 ± 0.5% and 13.3%	CCCCC(=O)N(Cc1ccc(-c2ccccc2-c2nnn[nH]2)cc1)[C@H](C(=O)O)C(C)C [A2,Ca, (S)—N-(1-carboxy-2-methyl-prop-1-yl)-N-pentanoyl-N-[2′-(1H-tetrazol-5-yl)-biphenyl-4-ylmethyl]-amine]	–
0 ± 0.1%	2.1 ± 0.3%	6.5 ± 0.5%	9.5 ± 0.5%	11.1 ± 0.5%	12.0 ± 0.5%	12.5 ± 0.5%	12.8 ± 0.5%	13.0 ± 0.5%	13.6 ± 0.5%	14.3 ± 0.5%	CCCCC(=O)N(Cc1ccc(-c2ccccc2-c2nnn[nH]2)cc1)[C@H](C(=O)O)C(C)C [B1,Mg, (S)—N-(1-carboxy-2-methyl-prop-1-yl)-N-pentanoyl-N-[2′-(1H-tetrazol-5-yl)-biphenyl-4-ylmethyl]-amine]	–
0.6%	3.0%	5.6%	7.1%	7.9%	8.3%	8.6%	8.6%	8.8%	–	–	CCCCC(=O)N(Cc1ccc(-c2ccccc2-c2nnn[nH]2)cc1)[C@H](C(=O)O)C(C)C [F1,Ca, (S)—N-(1-carboxy-2-methyl-prop-1-yl)-N-pentanoyl-N-[2′-(1H-tetrazol-5-yl)-biphenyl-4-ylmethyl]-amine]	–

Compound	weight loss or water loss in % (temperature 25 °C)	weight loss or water loss in % (temperature 50 °C)	weight loss or water loss in % (temperature 75 °C)	weight loss or water loss in % (temperature 100 °C)	weight loss or water loss in % (temperature 125 °C)	weight loss or water loss in % (temperature 150 °C)	weight loss or water loss in % (temperature 175 °C)	weight loss or water loss in % (temperature 200 °C)	weight loss or water loss in % (temperature 225 °C)	weight loss or water loss in % (temperature 250 °C)	weight loss or water loss in % (temperature 275 °C)	further results
CCCCC(=O)N(Cc1ccc(-c2ccccc2-c2nn[n-]n2)cc1)[C@H](C(=O)[O-])C(C)C.CCCCC(=O)N(Cc1ccc(-c2ccccc2-c2nn[n-]n2)cc1)[C@H](C(=O)[O-])C(C)C.O.O.O.O.O.[Ca+2].[Ca+2] [D1,Ca, di-{calcium salt of (S)—N-(1-carboxy-2-methyl-prop-1-yl)-N-pentanoyl-N-[2′-(1H-tetrazol-5-yl)-biphenyl-4-ylmethyl]-amine}pentahydrate]	0.1 ± 0.1% and 0.1%	1.3 ± 0.3% and 1.7%	2.8 ± 0.5% and 3.3%	5.1 ± 0.5% and 5.1%	7.4 ± 0.5% and 7.1%	8.0 ± 0.5% and 7.7%	8.1 ± 0.5% and 7.9%	8.2 ± 0.5% and 8.0%	8.2 ± 0.5% and 8.1%	8.3 ± 0.5% and 8.3%	8.6 ± 0.5% and 8.6%	–
(S)—N-(1-carboxy-2-methyl-prop-1-yl)-N-pentanoyl-N-[2′-(1H-tetrazol-5-yl)-biphenyl-4-ylmethyl]-amine calcium salt tetrahydrate [A0,Ca]	0%	0%	0.5%	3.5%	10.2%	12.4%	12.8%	12.9%	13.0%	13.3%	13.2%	–
(S)—N-(1-carboxy-2-methyl-prop-1-yl)-N-pentanoyl-N-[2′-(1H-tetrazol-5-yl)-biphenyl-4-ylmethyl]-amine calcium salt tetrahydrate [A1,Ca]	1.1 ± 0.5% and 1.1%	3.3 ± 0.5% and 3.3%	5.1 ± 0.5% and 5.1%	9.6 ± 1.0% and 9.6%	12.2 ± 0.5% and 12.1%	12.9 ± 0.5% and 12.9%	13.2 ± 0.5% and 13.2%	13.3 ± 0.5% and 13.3%	13.4 ± 0.5% and 13.4%	13.3 ± 0.5% and 13.3%	13.7 ± 0.5% and 13.7%	–
(S)—N-(1-carboxy-2-methyl-prop-1-yl)-N-pentanoyl-N-[2′-(1H-tetrazol-5-yl)-biphenyl-4-ylmethyl]-amine calcium salt trihydrate [B1,Ca]	–	–	–	–	–	–	–	9.7%	–	–	–	weight loss or water loss in % (temperature 25 °C, calcium salt trihydrate): 0.4 ± 0.3% and 0.5%; weight loss or water loss in % (temperature 50 °C, calcium salt trihydrate): 2.0 ± 0.5% and 2.0%; weight loss or water loss in % (temperature 75 °C, calcium salt trihydrate): 4.0 ± 0.5% and 3.9%; weight loss or water loss in % (temperature 100 °C, calcium salt trihydrate): 6.3 ± 0.5% and 5.7%; weight loss or water loss in % (temperature 125 °C, calcium salt trihydrate): 8.5 ± 0.5% and 8.1%; weight loss or water loss in % (temperature 150 °C, calcium salt trihydrate): 9.5 ± 0.5% and 9.2%; weight loss or water loss in % (temperature 175 °C, calcium salt trihydrate): 9.7 ± 0.5% and 9.5%; weight loss or water loss in % (temperature 200 °C, calcium salt trihydrate): 9.9 ± 0.5%; weight loss or water loss in % (temperature 225 °C, calcium salt trihydrate): 9.9 ± 0.5% and 9.7%; weight loss or water loss in % (temperature 250 °C, calcium salt trihydrate): 10.0 ± 0.5% and 9.9%; weight loss or water loss in % (temperature 275 °C, calcium salt trihydrate): 10.3 ± 0.5% and 10.2%
